Data: ChEMBL document CHEMBL1124091, “Synthesis, resolution, and absolute configuration of the isomers of the neuronal excitant 1-amino-1,3-cyclopentanedicarboxylic acid” (J Med Chem, 1988)

Test: Repolarization time for compound was measured by pattern firing by APN and KVN blockade
Format: functional
Set-up: unit not given here

SMILES | Repolarization time
N[C@@]1(C(=O)O)CC[C@H](C(=O)O)C1 (stereo in doubt; trans) | 17
CN[C@H](CC(=O)O)C(=O)O | 8
N[C@H](Cn1oc(=O)[nH]c1=O)C(=O)O | 7.8
C=C(C)[C@H]1CN[C@H](C(=O)O)[C@H]1CC(=O)O | 19.9
N[C@]1(C(=O)O)CC[C@H](C(=O)O)C1 | 12.7
N[C@@]1(C(=O)O)CC[C@H](C(=O)O)C1 (stereo in doubt; cis) | 15
N[C@]1(C(=O)O)CC[C@@H](C(=O)O)C1 | 10.5
